Drawing on patent US8124610B2, “Sodium channel inhibitors” (Icagen Inc., priority 2007, dated 2012), this text covers IC50 for 32 compounds.

The target in one assay is T1, hSCN9A (Homo sapiens, UniProt Q15858).
T1 construct: expressed in transfected cells
The assay is described as follows: Whole-cell patch-clamp electrophysiology (conventional or PatchXpress), HEK cells expressing hSCN9A, estimated IC-50. Format: cell-based. To be noted: estimated IC-50, HEK cells expressing hSCN9A; class symbols or bounds; read-out: SCN9A EIC-50. In short, it runs like this:
(§1)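 Stably transfected HEK cells recorded by whole-cell voltage clamp (manual or PatchXpress) at 22–24 °C in pH 7.4 HEPES-buffered extracellular solution. Cells held at the empirically determined inactivation V1/2 after an 8 s prepulse, then stepped to 0 mV for 20 ms; % inhibition from current amplitude before vs after compound.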

For another assay, the target named is T2, hSCN3A (Homo sapiens, UniProt Q9NY46).
T2 construct: expressed in transfected cells
T2 sequence (Q9NY46 whole entry): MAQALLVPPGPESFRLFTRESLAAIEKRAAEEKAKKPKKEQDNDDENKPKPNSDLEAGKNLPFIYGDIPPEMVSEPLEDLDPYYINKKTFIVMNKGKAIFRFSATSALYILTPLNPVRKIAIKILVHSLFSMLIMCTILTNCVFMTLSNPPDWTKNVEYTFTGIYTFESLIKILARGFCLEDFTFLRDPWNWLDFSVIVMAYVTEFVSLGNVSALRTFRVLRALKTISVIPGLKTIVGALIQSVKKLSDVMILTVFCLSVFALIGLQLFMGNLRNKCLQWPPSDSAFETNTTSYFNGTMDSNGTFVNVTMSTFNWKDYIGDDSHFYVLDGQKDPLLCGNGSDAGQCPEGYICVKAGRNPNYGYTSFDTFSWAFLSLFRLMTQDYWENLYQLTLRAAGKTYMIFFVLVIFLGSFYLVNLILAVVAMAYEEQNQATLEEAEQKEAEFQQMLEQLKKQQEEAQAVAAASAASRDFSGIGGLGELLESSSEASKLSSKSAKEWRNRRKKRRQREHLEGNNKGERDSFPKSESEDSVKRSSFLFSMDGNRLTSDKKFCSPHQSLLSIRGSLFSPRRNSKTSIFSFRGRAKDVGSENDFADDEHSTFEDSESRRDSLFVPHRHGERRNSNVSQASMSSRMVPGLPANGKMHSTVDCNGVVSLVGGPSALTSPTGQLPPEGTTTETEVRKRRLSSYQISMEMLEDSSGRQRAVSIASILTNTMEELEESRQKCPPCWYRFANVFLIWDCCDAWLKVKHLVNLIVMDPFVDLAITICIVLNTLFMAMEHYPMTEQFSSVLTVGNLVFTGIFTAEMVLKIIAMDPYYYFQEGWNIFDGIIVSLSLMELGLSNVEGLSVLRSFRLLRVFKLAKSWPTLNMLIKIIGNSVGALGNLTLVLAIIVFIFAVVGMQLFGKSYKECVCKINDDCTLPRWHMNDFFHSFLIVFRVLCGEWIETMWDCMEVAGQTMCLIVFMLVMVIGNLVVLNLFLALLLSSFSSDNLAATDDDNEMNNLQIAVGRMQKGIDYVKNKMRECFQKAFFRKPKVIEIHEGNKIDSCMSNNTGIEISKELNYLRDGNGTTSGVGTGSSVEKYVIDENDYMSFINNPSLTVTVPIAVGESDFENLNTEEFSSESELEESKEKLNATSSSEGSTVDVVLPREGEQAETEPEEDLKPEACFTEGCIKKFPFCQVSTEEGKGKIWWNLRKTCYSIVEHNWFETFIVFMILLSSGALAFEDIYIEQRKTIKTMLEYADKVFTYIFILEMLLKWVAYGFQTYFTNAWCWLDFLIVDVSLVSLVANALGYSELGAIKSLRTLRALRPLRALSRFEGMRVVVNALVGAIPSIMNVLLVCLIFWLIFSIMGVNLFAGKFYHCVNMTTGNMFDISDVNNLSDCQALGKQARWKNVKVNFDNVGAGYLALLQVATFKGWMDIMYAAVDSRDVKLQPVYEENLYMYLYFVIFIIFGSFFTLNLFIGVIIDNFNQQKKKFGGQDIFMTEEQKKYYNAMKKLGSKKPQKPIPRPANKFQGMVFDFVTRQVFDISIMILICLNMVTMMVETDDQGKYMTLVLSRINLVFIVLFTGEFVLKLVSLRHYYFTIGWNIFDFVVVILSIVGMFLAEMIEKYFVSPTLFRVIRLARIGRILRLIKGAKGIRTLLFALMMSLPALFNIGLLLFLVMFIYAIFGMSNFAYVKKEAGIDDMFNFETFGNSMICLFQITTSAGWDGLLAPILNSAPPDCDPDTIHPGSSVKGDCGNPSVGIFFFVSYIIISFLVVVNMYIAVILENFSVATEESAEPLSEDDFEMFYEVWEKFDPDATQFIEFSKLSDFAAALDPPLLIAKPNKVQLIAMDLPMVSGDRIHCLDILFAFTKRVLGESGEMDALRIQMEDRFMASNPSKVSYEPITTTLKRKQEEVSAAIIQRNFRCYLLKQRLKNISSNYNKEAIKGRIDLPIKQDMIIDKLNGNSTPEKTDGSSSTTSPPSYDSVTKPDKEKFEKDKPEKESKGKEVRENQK
The assay is described as follows: Whole-cell patch-clamp electrophysiology (conventional or PatchXpress), HEK cells expressing hSCN3A, estimated IC-50. The format is cell-based. To be noted: estimated IC-50, HEK cells expressing hSCN3A; class symbols or bounds; read-out: SCN3A EIC-50. In short, it runs like this: as §1

T1 sequence (Q15858 whole entry): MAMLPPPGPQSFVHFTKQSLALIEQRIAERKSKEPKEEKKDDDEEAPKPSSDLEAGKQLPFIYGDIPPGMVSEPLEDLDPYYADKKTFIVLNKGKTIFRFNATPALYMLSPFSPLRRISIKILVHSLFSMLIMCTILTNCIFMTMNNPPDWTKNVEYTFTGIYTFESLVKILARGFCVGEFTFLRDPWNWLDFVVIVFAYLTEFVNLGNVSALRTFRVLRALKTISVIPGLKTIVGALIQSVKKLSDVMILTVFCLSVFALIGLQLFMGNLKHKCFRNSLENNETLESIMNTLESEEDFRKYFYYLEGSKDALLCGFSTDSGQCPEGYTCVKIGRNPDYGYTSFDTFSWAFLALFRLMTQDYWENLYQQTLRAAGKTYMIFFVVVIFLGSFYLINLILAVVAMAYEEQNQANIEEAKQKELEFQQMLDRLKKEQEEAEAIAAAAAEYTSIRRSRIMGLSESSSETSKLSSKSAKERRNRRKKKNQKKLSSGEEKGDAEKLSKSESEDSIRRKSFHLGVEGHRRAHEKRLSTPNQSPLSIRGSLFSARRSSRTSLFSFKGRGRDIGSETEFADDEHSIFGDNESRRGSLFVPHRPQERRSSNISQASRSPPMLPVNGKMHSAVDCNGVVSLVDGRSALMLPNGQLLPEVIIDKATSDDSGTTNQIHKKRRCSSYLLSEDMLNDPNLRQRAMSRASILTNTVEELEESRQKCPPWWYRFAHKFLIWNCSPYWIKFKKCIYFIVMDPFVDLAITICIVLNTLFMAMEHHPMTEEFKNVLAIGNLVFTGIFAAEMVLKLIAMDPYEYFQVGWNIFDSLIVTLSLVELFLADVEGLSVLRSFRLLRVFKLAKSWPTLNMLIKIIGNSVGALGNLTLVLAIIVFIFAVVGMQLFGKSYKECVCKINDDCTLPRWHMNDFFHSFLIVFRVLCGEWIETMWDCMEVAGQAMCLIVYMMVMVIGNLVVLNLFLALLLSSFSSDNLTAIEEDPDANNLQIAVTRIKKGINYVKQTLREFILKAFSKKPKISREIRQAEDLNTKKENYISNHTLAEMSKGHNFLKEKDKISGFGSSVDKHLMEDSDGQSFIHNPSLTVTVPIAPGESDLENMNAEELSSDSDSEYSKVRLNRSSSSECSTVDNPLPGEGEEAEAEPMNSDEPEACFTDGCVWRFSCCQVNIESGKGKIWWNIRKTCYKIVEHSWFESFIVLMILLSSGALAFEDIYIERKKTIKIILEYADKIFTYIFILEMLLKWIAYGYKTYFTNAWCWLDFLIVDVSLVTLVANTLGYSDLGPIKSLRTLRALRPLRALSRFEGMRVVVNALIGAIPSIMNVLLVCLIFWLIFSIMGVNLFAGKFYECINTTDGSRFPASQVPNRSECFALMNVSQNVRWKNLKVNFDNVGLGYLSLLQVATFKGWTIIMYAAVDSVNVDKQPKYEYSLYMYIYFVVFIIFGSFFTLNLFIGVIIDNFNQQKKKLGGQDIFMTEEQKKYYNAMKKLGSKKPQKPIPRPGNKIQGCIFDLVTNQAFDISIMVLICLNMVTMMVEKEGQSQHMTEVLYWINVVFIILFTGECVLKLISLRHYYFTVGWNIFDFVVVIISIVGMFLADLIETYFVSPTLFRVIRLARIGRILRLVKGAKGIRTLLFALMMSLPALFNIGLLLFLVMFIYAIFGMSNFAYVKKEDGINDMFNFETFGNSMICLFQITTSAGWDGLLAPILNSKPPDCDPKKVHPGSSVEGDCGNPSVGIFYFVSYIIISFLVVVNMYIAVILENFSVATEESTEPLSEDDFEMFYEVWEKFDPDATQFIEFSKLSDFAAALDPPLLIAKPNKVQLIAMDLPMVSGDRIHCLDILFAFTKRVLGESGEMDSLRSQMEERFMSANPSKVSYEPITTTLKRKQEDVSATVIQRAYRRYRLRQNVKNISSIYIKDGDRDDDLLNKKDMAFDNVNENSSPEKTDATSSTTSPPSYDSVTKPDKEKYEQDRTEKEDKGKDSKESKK

With `CN(CCc1ccccc1)Cc1csc(Nc2ccc(S(=O)(=O)Nc3nccs3)cc2)n1` [Compound 67, 4-(4-((methyl(phenethyl)amino)methyl)thiazol-2-ylamino)-N-(thiazol-2-yl)benzenesulfonamide], the IC50 is 2000 to 10000 nM on hSCN9A and less than 2000 nM on hSCN3A.

For `CCN(CC)Cc1csc(Nc2ccc(S(=O)(=O)Nc3nccs3)cc2)n1` [Compound 68, 4-(4-((diethylamino)methyl)thiazol-2-ylamino)-N-(thiazol-2-yl)benzenesulfonamide], the IC50 is 2000 to 10000 nM at hSCN9A and greater than 1000 nM at hSCN3A.

With `O=S(=O)(Nc1nccs1)c1ccc(Nc2nc(CNCCCCc3ccccc3)cs2)cc1` [Compound 69, 4-(4-((4-phenylbutylamino)methyl)thiazol-2-ylamino)-N-(thiazol-2-yl)benzenesulfonamide], the IC50 at hSCN9A and on hSCN3A was less than 2000 nM throughout.

Take `CN(Cc1csc(Nc2ccc(S(=O)(=O)Nc3nccs3)cc2)n1)C(c1ccccc1)c1ccccc1` [Compound 70, 4-(4-((benzhydryl(methyl)amino)methyl)thiazol-2-ylamino)-N-(thiazol-2-yl)benzenesulfonamide]: the figures for the IC50 on hSCN9A and at hSCN3A were greater than 1000 nM and less than 2000 nM, respectively.

Turning to `O=S(=O)(Nc1nccs1)c1ccc(Nc2nc(CNCc3ccc(C(F)(F)F)cc3)cs2)cc1` [Compound 71, N-(thiazol-2-yl)-4-(4-((4-(trifluoromethyl)benzylamino)methyl)thiazol-2-ylamino)benzenesulfonamide], the values for the IC50 at hSCN9A and on hSCN3A were 2000 to 10000 nM and less than 2000 nM, respectively.

On to `O=[N+]([O-])c1ccc(CNCc2csc(Nc3ccc(S(=O)(=O)Nc4nccs4)cc3)n2)cc1` [Compound 72, 4-(4-((4-nitrobenzylamino)methyl)thiazol-2-ylamino)-N-(thiazol-2-yl)benzenesulfonamide], for which the IC50 was 2000 to 10000 nM on hSCN9A and less than 2000 nM on hSCN3A.

For `CN(C)c1ccc(CNCc2csc(Nc3ccc(S(=O)(=O)Nc4nccs4)cc3)n2)cc1` [Compound 73, 4-(4-((4-(dimethylamino)benzylamino)methyl)thiazol-2-ylamino)-N-(thiazol-2-yl)benzenesulfonamide], the IC50 on hSCN9A was 2000 to 10000 nM; on hSCN3A, less than 2000 nM.

In the case of `O=S(=O)(Nc1nccs1)c1ccc(Nc2nc(CNC3CCCCCC3)cs2)cc1` [Compound 74, 4-(4-((cycloheptylamino)methyl)thiazol-2-ylamino)-N-(thiazol-2-yl)benzenesulfonamide], the IC50 on hSCN9A and at hSCN3A was 2000 to 10000 nM throughout.

For the compound `CN(CCc1ccncc1)Cc1csc(Nc2ccc(S(=O)(=O)Nc3nccs3)cc2)n1` [Compound 75, 4-(4-((methyl(2-(pyridin-4-yl)ethyl)amino)methyl)thiazol-2-ylamino)-N-(thiazol-2-yl)benzenesulfonamide], the values for the IC50 at hSCN9A and at hSCN3A were greater than 1000 nM and less than 2000 nM, respectively.

On to `COc1ccc(CNCc2csc(Nc3ccc(S(=O)(=O)Nc4nccs4)cc3)n2)c(OC)c1` [Compound 76, 4-(4-((2,4-dimethoxybenzylamino)methyl)thiazol-2-ylamino)-N-(thiazol-2-yl)benzenesulfonamide], for which the IC50 on hSCN9A and on hSCN3A was 2000 to 10000 nM throughout.

For the compound `COC(=O)c1sc(Nc2ccc(S(=O)(=O)Nc3nccs3)cc2)nc1C` [Compound 77, methyl 4-methyl-2-(4-(N-thiazol-2-ylsulfamoyl)phenylamino)thiazole-5-carboxylate], the IC50 was greater than 3000 nM at hSCN9A and less than 2000 nM at hSCN3A.

In the case of `Cc1csc(Nc2ccc(S(=O)(=O)Nc3nccs3)cc2)n1` [Compound 78, 4-(4-methylthiazol-2-ylamino)-N-(thiazol-2-yl)benzenesulfonamide], the IC50 was greater than 1000 nM at hSCN9A and 2000 to 10000 nM on hSCN3A.

For the compound `O=S(=O)(Nc1nccs1)c1ccc(Nc2nc(Cc3ccc(F)cc3F)cs2)cc1` [Compound 79, 4-(4-(2,4-difluorobenzyl)thiazol-2-ylamino)-N-(thiazol-2-yl)benzenesulfonamide], the IC50 at hSCN9A and at hSCN3A was less than 2000 nM each time.

`Cc1nc(Nc2ccc(S(=O)(=O)Nc3nccs3)cc2)sc1C` [Compound 80, 4-(4,5-dimethylthiazol-2-ylamino)-N-(thiazol-2-yl)benzenesulfonamide]: the figures for the IC50 on hSCN9A and at hSCN3A were greater than 1000 nM and 2000 to 10000 nM, respectively.

`O=S(=O)(Nc1nccs1)c1ccc(Nc2nccc(OCC3CCCCC3)n2)cc1` [Compound 81, 4-(4-(cyclohexylmethoxy)pyrimidin-2-ylamino)-N-(thiazol-2-yl)benzenesulfonamide]: the IC50 at hSCN9A is greater than 10000 nM; at hSCN3A, less than 2000 nM.

In the case of `O=S(=O)(Nc1nccs1)c1ccc(Nc2nc(CSc3ccc(F)cc3)cs2)cc1` [Compound 82, 4-(4-((4-fluorophenylthio)methyl)thiazol-2-ylamino)-N-(thiazol-2-yl)benzenesulfonamide], the IC50 on hSCN9A and at hSCN3A was less than 2000 nM in each case.

In the case of `O=S(=O)(Nc1nccs1)c1ccc(Nc2nc(C(F)(F)F)cs2)cc1` [Compound 83, N-(thiazol-2-yl)-4-(4-(trifluoromethyl)thiazol-2-ylamino)benzenesulfonamide], the IC50 at hSCN9A was 2000 to 10000 nM; on hSCN3A, less than 2000 nM.

As to `O=S(=O)(Nc1nccs1)c1ccc(Nc2nc(-c3ccc(C(F)(F)F)cc3)cs2)cc1` [Compound 84, N-(thiazol-2-yl)-4-(4-(4-(trifluoromethyl)phenyl)thiazol-2-ylamino)benzenesulfonamide], the IC50 at hSCN9A and at hSCN3A was less than 2000 nM each time.

With `COc1ccnc(Nc2ccc(S(=O)(=O)Nc3nccs3)cc2)n1` [Compound 85, 4-(4-methoxypyrimidin-2-ylamino)-N-(thiazol-2-yl)benzenesulfonamide], the IC50 on hSCN9A was greater than 3000 nM; on hSCN3A, greater than 1000 nM.

As to `O=S(=O)(Nc1nccs1)c1ccc(Nc2nc(C[S+]([O-])c3ccc(F)cc3)cs2)cc1` (stereo not shown) [Compound 89, 4-(4-((4-fluorophenylsulfinyl)methyl)thiazol-2-ylamino)-N-(thiazol-2-yl)benzenesulfonamide], the IC50 on hSCN9A is greater than 1000 nM; on hSCN3A, 2000 to 10000 nM.

As to `O=S(=O)(Nc1nccs1)c1ccc(Nc2nc(-c3ccc(C(F)(F)F)cc3F)cs2)cc1` [Compound 90, 4-(4-(2-fluoro-4-(trifluoromethyl)phenyl)thiazol-2-ylamino)-N-(thiazol-2-yl)benzenesulfonamide], the IC50 is greater than 1000 nM on hSCN9A and less than 2000 nM on hSCN3A.

For `O=S(=O)(Nc1nccs1)c1ccc(Nc2nc(Cc3ccc(Cl)cc3)cs2)cc1` [Compound 91, 4-(4-(4-chlorobenzyl)thiazol-2-ylamino)-N-(thiazol-2-yl)benzenesulfonamide], the IC50 on hSCN9A and on hSCN3A was less than 2000 nM each time.

With `O=S(=O)(Nc1nccs1)c1ccc(Nc2cncc(C(c3ccccc3)c3ccccc3)n2)cc1` [Compound 92, 4-(6-benzhydrylpyrazin-2-ylamino)-N-(thiazol-2-yl)benzenesulfonamide], the figures for the IC50 at hSCN9A and at hSCN3A were 2000 to 10000 nM and less than 2000 nM, respectively.

For the compound `O=S(=O)(Nc1nccs1)c1ccc(Nc2cccc(C(c3ccccc3)c3ccccc3)n2)cc1` [Compound 93, 4-(6-benzhydrylpyridin-2-ylamino)-N-(thiazol-2-yl)benzenesulfonamide], the results for the IC50 at hSCN9A and at hSCN3A were greater than 1000 nM and less than 2000 nM, respectively.

In the case of `O=S(=O)(Nc1nccs1)c1ccc(Nc2nc(CCCOc3ccc(Cl)cc3)cs2)cc1` [Compound 94, 4-(4-(3-(4-chlorophenoxy)propyl)thiazol-2-ylamino)-N-(thiazol-2-yl)benzenesulfonamide], the IC50 on hSCN9A and on hSCN3A was less than 2000 nM each time.

Take `O=S(=O)(Nc1nccs1)c1ccc(Nc2nc(COc3ccc(Cl)cc3Cl)cs2)cc1` [Compound 95, 4-(4-((2,4-dichlorophenoxy)methyl)thiazol-2-ylamino)-N-(thiazol-2-yl)benzenesulfonamide]: the IC50 on hSCN9A and at hSCN3A was less than 2000 nM throughout.

As for `Cc1cc(Cl)ccc1OCc1csc(Nc2ccc(S(=O)(=O)Nc3nccs3)cc2)n1` [Compound 96, 4-(4-((4-chloro-2-methylphenoxy)methyl)thiazol-2-ylamino)-N-(thiazol-2-yl)benzenesulfonamide], the IC50 on hSCN9A and at hSCN3A was less than 2000 nM each time.

Regarding `CC(C)(Oc1ccc(Cl)cc1)c1csc(Nc2ccc(S(=O)(=O)Nc3nccs3)cc2)n1` [Compound 97, 4-(4-(2-(4-chlorophenoxy)propan-2-yl)thiazol-2-ylamino)-N-(thiazol-2-yl)benzenesulfonamide], the IC50 is greater than 1000 nM at hSCN9A and less than 2000 nM on hSCN3A.

Regarding `O=S(=O)(Nc1nccs1)c1ccc(Nc2cncc(Cc3cc(F)cc(F)c3)n2)cc1` [Compound 98, 4-(6-(3,5-difluorobenzyl)pyrazin-2-ylamino)-N-(thiazol-2-yl)benzenesulfonamide], the IC50 at hSCN9A is 2000 to 10000 nM; on hSCN3A it was less than 2000 nM.

Take `O=S(=O)(Nc1nccs1)c1ccc(Nc2nc3cc(Cl)ccc3[nH]2)cc1` [Compound 99, 4-(5-chloro-1H-benzo[d]imidazol-2-ylamino)-N-(thiazol-2-yl)benzenesulfonamide]: the IC50 on hSCN9A was 2000 to 10000 nM; at hSCN3A, less than 2000 nM.

`Cn1c(Nc2ccc(S(=O)(=O)Nc3nccs3)cc2)nc2cc(Cl)ccc21` [Compound 100, 4-(5-chloro-1-methyl-1H-benzo[d]imidazol-2-ylamino)-N-(thiazol-2-yl)benzenesulfonamide]: the IC50 is 2000 to 10000 nM on hSCN9A and less than 2000 nM at hSCN3A.

Regarding `Cn1c(Nc2ccc(S(=O)(=O)Nc3nccs3)cc2)nc2ccc(Cl)cc21` [Compound 101, 4-(6-chloro-1-methyl-1H-benzo[d]imidazol-2-ylamino)-N-(thiazol-2-yl)benzenesulfonamide], the values for the IC50 at hSCN9A and at hSCN3A were 2000 to 10000 nM and less than 2000 nM, respectively.
